What was measured:
[1] = tested on: human cervical tumor cell line HeLa (ATCC CCL-2); test: SAC-Formation - Paclitaxel-Induced Assay; format: cell-based; conditions: Homo sapiens, HeLa, 24 h, HeLa cells, paclitaxel 0.05 μM, test range 0.005 μM-20 μM, read-out: IC50 [mol/l] SAC-Formation - Paclitaxel-Induced Assay
Method in brief: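 Read-out is high-content imaging of anti-phospho-H3 Ser10 (mitosis) and Hoechst 33342 (DNA, cell number), with decreased mitotic fraction marking checkpoint breakthrough. Compounds (0.005–20 μM) and 0.05 μM paclitaxel co-added to overnight-plated HeLa for 24 h at 37° C; four-parameter Hill fit.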

HeLa = test: Proliferation assay (crystal violet), HeLa; format: cell-based; conditions: Homo sapiens, HeLa, 96 h, HeLa cells; 4 days incubation; crystal violet staining; read-out: IC50 inhibition of proliferation, HeLa
Method in brief: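 Crystal violet proliferation readout, 4-day compound incubation, 0.001–10 μM, final DMSO 0.5%. Zero-point plate stained at time of dosing set as 0%, untreated control as 100%; IC50 via 4-parameter fit.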

Structure (SMILES)	IC50 [1] [nM]	IC50 (HeLa) [nM]
Cc1nsc(Nc2cnc(C(F)(F)F)cn2)c1C(=O)Nc1ccc(F)c(OCC2CCN(CCC(F)(F)F)CC2)c1 [Example 311, N-(4-fluoro-3-{[1-(3,3,3-trifluoropropyl)piperidin-4-yl]methoxy}phenyl)-3-methyl-5-{[5-(trifluoromethyl)pyrazin-2-yl]amino}-1,2-thiazole-4-carboxamide]	480	330
Cc1nsc(Nc2cncc(C(F)(F)F)n2)c1C(=O)Nc1ccc(C(=O)N2CCN(CCF)CC2)cc1 [Example 274, N-(4-{[4-(2-fluoroethyl)piperazin-1-yl]carbonyl}phenyl)-3-methyl-5-{[6-(trifluoromethyl)pyrazin-2-yl]amino}-1,2-thiazole-4-carboxamide]	9000	> 10000
Cc1nsc(Nc2cnc3ccccc3n2)c1C(=O)Nc1cccc(NS(=O)(=O)C2CN(CCC(F)(F)F)C2)c1 [Example 288, 3-methyl-5-(quinoxalin-2-ylamino)-N-[3-({[1-(3,3,3-trifluoropropyl)azetidin-3-yl]sulfonyl}amino)phenyl]-1,2-thiazole-4-carboxamide]	6100	9900
Cc1nsc(Nc2cnc(C(F)(F)F)cn2)c1C(=O)Nc1ccc(OCCCNCCC(F)(F)F)nc1 [Example 294, 3-methyl-5-{[5-(trifluoromethyl)pyrazin-2-yl]amino}-N-(6-{3-[(3,3,3-trifluoropropyl)amino]propoxy}pyridin-3-yl)-1,2-thiazole-4-carboxamide]	560	1300
Cc1nsc(Nc2cnc(C(F)(F)F)cn2)c1C(=O)Nc1ccc(F)c(OCCCN(C)CC(F)F)c1 [Example 301, N-(3-{3-[(2,2-difluoroethyl)(methyl)amino]propoxy}-4-fluorophenyl)-3-methyl-5-{[5-(trifluoromethyl)pyrazin-2-yl]amino}-1,2-thiazole-4-carboxamide]	810	360
CCNC(=O)c1cccc(NC(=O)c2c(C)nsc2Nc2cnc3ccccc3n2)c1 [Example 251, N-[3-(ethylcarbamoyl)phenyl]-3-methyl-5-(quinoxalin-2-ylamino)-1,2-thiazole-4-carboxamide]	3000	4500
Cc1nsc(Nc2cncc(C(F)(F)F)n2)c1C(=O)Nc1ccc(C(=O)N2CCN(CC(F)(F)F)CC2)cc1 [Example 272, 3-methyl-N-(4-{[4-(2,2,2-trifluoroethyl)piperazin-1-yl]carbonyl}phenyl)-5-{[6-(trifluoromethyl)pyrazin-2-yl]amino}-1,2-thiazole-4-carboxamide]	2400	5800
COC(=O)CCc1cccc(NC(=O)c2c(C)nsc2Nc2cnc3ccccc3n2)c1 [Example 257, methyl 3-[3-({[3-methyl-5-(quinoxalin-2-ylamino)-1,2-thiazol-4-yl]carbonyl}amino)phenyl]propanoate]	2700	7700
Cc1nsc(Nc2cnc(C(F)(F)F)cn2)c1C(=O)Nc1ccc(F)c(OCC2CCN(CCF)C2)c1 (stereo not shown) [Example 317, N-(4-fluoro-3-{[1-(2-fluoroethyl)pyrrolidin-3-yl]methoxy}phenyl)-3-methyl-5-{[5-(trifluoromethyl)pyrazin-2-yl]amino}-1,2-thiazole-4-carboxamide]	610	450
Cc1nsc(Nc2cnc(C(F)(F)F)cn2)c1C(=O)Nc1ccc(OCCCNCC(F)(F)F)nc1 [Example 292, 3-methyl-N-(6-{3-[(2,2,2-trifluoroethyl)amino]propoxy}pyridin-3-yl)-5-{[5-(trifluoromethyl)pyrazin-2-yl]amino}-1,2-thiazole-4-carboxamide]	420	1800
COC(=O)CCCc1ccc(NC(=O)c2c(C)nsc2Nc2cc(C#N)ccn2)cc1 [Example 256, methyl 4-{4-[({5-[(4-cyanopyridin-2-yl)amino]-3-methyl-1,2-thiazol-4-yl}carbonyl)amino]phenyl}butanoate]	3600	> 10000
CCN1CCN(C(=O)c2ccc(NC(=O)c3c(C)nsc3Nc3cnc(C(F)(F)F)cn3)cc2)CC1 [Example 261, N-{4-[(4-ethylpiperazin-1-yl)carbonyl]phenyl}-3-methyl-5-{[5-(trifluoromethyl)pyrazin-2-yl]amino}-1,2-thiazole-4-carboxamide]	2900	4800

These reach a lower IC50 [1]. Values come first.

IC50 [1] [nM]	IC50 (HeLa) [nM]	Structure (SMILES)
90	360	Cc1nsc(Nc2cncc(C(F)(F)F)n2)c1C(=O)Nc1ccc(OC2CCN(CCC(F)(F)F)CC2)nc1 [Example 304, 3-methyl-5-{[6-(trifluoromethyl)pyrazin-2-yl]amino}-N-(6-{[1-(3,3,3-trifluoropropyl)piperidin-4-yl]oxy}pyridin-3-yl)-1,2-thiazole-4-carboxamide]
78	410	Cc1nsc(Nc2cnc(C(F)(F)F)cn2)c1C(=O)Nc1ccc(F)c(OC2CCN(CC(F)F)C2)c1 (stereo not shown) [Example 314, N-(3-{[1-(2,2-difluoroethyl)pyrrolidin-3-yl]oxy}-4-fluorophenyl)-3-methyl-5-{[5-(trifluoromethyl)pyrazin-2-yl]amino}-1,2-thiazole-4-carboxamide]
66	2100	Cc1nsc(Nc2cc(C#N)ccn2)c1C(=O)Nc1ccc(OC2CCN(CC(F)(F)F)CC2)nc1 [Example 25, 5-[(4-Cyanopyridin-2-yl)amino]-3-methyl-N-(6-{[1-(2,2,2-trifluoroethyl)piperidin-4-yl]oxy}pyridin-3-yl)-1,2-thiazole-4-carboxamide]
55	620	Cc1nsc(Nc2cnc(C(F)(F)F)cn2)c1C(=O)Nc1ccc(OC2CCN(C(CF)CF)C2)nc1 (stereo not shown) [Example 313, N-(6-{[1-(1,3-difluoropropan-2-yl)pyrrolidin-3-yl]oxy}pyridin-3-yl)-3-methyl-5-{[5-(trifluoromethyl)pyrazin-2-yl]amino}-1,2-thiazole-4-carboxamide]
51	340	Cc1nsc(Nc2cnc(C(F)(F)F)cn2)c1C(=O)Nc1ccc(F)c(OCC2CCN(CC(F)F)CC2)c1 [Example 308, N-(3-{[1-(2,2-difluoroethyl)piperidin-4-yl]methoxy}-4-fluorophenyl)-3-methyl-5-{[5-(trifluoromethyl)pyrazin-2-yl]amino}-1,2-thiazole-4-carboxamide]
49	230	Cc1nsc(Nc2cnc(C(F)(F)F)cn2)c1C(=O)Nc1ccc(F)c(OCC2CCN(CC(F)(F)F)CC2)c1 [Example 310, N-(4-fluoro-3-{[1-(2,2,2-trifluoroethyl)piperidin-4-yl]methoxy}phenyl)-3-methyl-5-{[5-(trifluoromethyl)pyrazin-2-yl]amino}-1,2-thiazole-4-carboxamide]
32	400	Cc1nsc(Nc2cnc(C(F)(F)F)cn2)c1C(=O)Nc1ccc(F)c(OCCCN(C)CCC(F)(F)F)c1 [Example 303, N-(4-fluoro-3-{3-[methyl(3,3,3-trifluoropropyl)amino]propoxy}phenyl)-3-methyl-5-{[5-(trifluoromethyl)pyrazin-2-yl]amino}-1,2-thiazole-4-carboxamide]
20	580	Cc1nsc(Nc2cncc(C(F)(F)F)n2)c1C(=O)Nc1ccc(F)c(OC2CCN(CC(F)(F)F)CC2)c1 [Example 267, N-(4-fluoro-3-{[1-(2,2,2-trifluoroethyl)piperidin-4-yl]oxy}phenyl)-3-methyl-5-{[6-(trifluoromethyl)pyrazin-2-yl]amino}-1,2-thiazole-4-carboxamide]

Source: patent US20170334899A1, “AMINO-SUBSTITUTED ISOTHIAZOLES” (Bayer Pharma Aktiengesellschaft, priority 2014, published 2017)
